Laboratory results published in patent US20260193293A1, “PEPTIDES CAPABLE OF INHIBITING PROTEIN-PROTEIN INTERACTIONS AT GABAB1A SUBUNIT AND USES THEREOF” (UNIVERSITY OF COPENHAGEN, priority 2022, published 2026).
Where two headings read alike, the source gives them in different places. Non-standard residues stand in square brackets, D forms with d. Residues, ends and D or L forms follow the SMILES beside them. 2Nal = N[C@@H](Cc1ccc2ccccc2c1)C(=O)O

Columns and labels:
[1] = biological target: Sushi domains (SD1/2) protein; experiment: Fluorescence polarization (FP) competition assay with AJAP-1probe, calculated Ki; assay type: binding
How it was run: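 Ki values were derived from IC50s (sigmoidal fits, ≥ triplicate), with probe Kd obtained by saturation titration of SD1/2. Peptides displaced a 25 nM TAMRA-labelled probe; polarization read at 530/580 nm in 1% BSA-containing PBS, pH 7.4, room temperature.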

[2] = biological target: T1, GB1a/2 receptors in presence of AJAP-1 in trans (Homo sapiens, UniProt Q9UBS5); experiment: SRE-Luciferase accumulation assay; assay type: cell-based; settings: 10 μM peptide; for basal activity of GB1a/2Rs: in presence of AJAP-1 in trans
T1 construct: Flag; expressed in transfected cells; host or cells: HEK293T cells stably expressing chimeric Gαq/i
Text: (§1) To elucidate whether our developed peptides AJAP-1WT, 16 and 20 could interact and disrupt the trans-interaction between AJAP-1 and GB1a/2Rs, we used an established accumulation assay based on coupling GB1a/2Rs to phospholipase C (PLC) via chimeric Gαqi (Conklin et al. 1993). PLC activity is then monitored with a serum responsive element-luciferase (SRE-Luciferase) reporter amplifying the GB1a/2Rs response (Yoo et al. 2017) (FIG. 5).
(§2) HEK293T cells stably expressing Gαq/i were transiently transfected with Flag-GB1a, Flag-GB2 and SRE-FLuc with or without AJAP-1. In order to ensure GB1a/2 binding of AJAP-1 in trans, a pool of HEK293T-Gαq/i cells expressing AJAP-1 was mixed with HEK293-Gαq/i cells expressing Flag-GB1a, Flag-GB2 and SRE-FLuc. Transfected cells were distributed into 96-well microplates (Greiner Bio-One) at a density of 80,000 cells/well. After 24 h, the culture medium was replaced with Opti-MEM™-GlutaMAX™ Peptides were incubated in Opti-MEM™-GlutaMAX™ for 10 minutes. In presence of peptide, GB1a/2 receptors were activated with various concentrations of GABA for 6 h. FLuc activity in lysed cells was measured using the Luciferase® Assay Kit (Promega) and a Spark® microplate reader. Luminescence signals were adjusted by subtracting the luminescence obtained when expressing SRE-FLuc fusion proteins alone.

[3] = biological target: T2, GB1a/2 receptors (Homo sapiens, UniProt Q9UBS5); experiment: SRE-Luciferase accumulation assay; assay type: cell-based; settings: in the absence of AJAP-1
T2 construct: Flag; expressed in transfected cells; host or cells: HEK293T cells stably expressing chimeric Gαq/i
Text: as §1, §2

[4] = human, plasma
Description: For time-course assay, 360 μL human plasma was pre-warmed up at 37° C. for 15 min and then spiked with 40 μL of tested peptides (1 mM in 1×PBS). […] Subsequently, 100 μL acetonitrile was added into and then samples were incubated overnight at −20° C. After that, all samples were centrifuged at 13,400 rpm for 10 min and the supernatant was filtered and then analyzed by LC-MS and UPLC (Waters). The area under the curve (AUC) was determined and normalized to the value of the first time point. The half-life (T1/2) was obtained by fitting the data to the one-phase decay equation in GraphPad Prism 9 and expressed as the mean of three individual experiments. For end-point assay, 108 μL human plasma was pre-warmed up at 37° C. for 15 min and then spiked with 12 μL of tested peptides (1 mM in 1×PBS).

[5] = biological target: T3, GB1a subunit (Mus musculus, UniProt Q9WV18); experiment: Pull-down from mouse brain membrane fraction, immunoblotting; assay type: binding; settings: immobilized peptides, whole-brain lysate
T3 construct: using the homogenized membrane fraction of wild type mouse brains; from tissue; host or cells: adult mouse brain, solubilized membrane-enriched fraction
Description: Covalent immobilization of peptides. Peptides AJAP-1WT, 17 and 20 comprising a C-terminal Cys and a PEG2 linker, were loaded covalently to Dynabeads M-270 Epoxy beads (Thermo Fischer Scientific) according to the protocol of the manufacturer. 25 μL DMSO stocks of peptides (10 mM) were diluted 15 times into 350 μL coupling buffer (100 mM PBS buffer containing 2 M […] and 10 mM TCEP, PH=7.4) and agitated overnight at 37° C. with Dynabeads M-270 Epoxy beads (5 mg, ~3.3×10^8 beads), which had been washed and equilibrated with coupling buffer before. After removing excess peptides, the Dynabeads M-270 Epoxy beads were washed three times and equilibrated with 100 mM PBS buffer, pH=7.4 and stored at 4° C.
Preparation of whole-brain lysates. Dissected adult mouse brains were placed in ice-cold homogenization buffer (320 mM sucrose, 4 mM HEPES, PH 7.5, 1 mM EDTA, 1 mM EGTA, supplemented with complete EDTA-free protease inhibitor mixture (Roche), 1 mL per 100 mg of brain) and homogenized with a glass-Teflon homogenizer (40 passes) on ice. The homogenized material was cleared by centrifugation at 500×g (4° C., 15 min). […]

[6] = tested on: HeLa cell line stably expressing HaloTag-GFP fusion protein; experiment: Chloroalkane penetration assay (CAPA); assay type: in vitro ADME; settings: cell membrane permeability, CA-tagged peptides, mean ± SEM, n ≥ 3
Description: The HeLa cell line used for CAPA assay was generated by Chenoweth and co-workers and provided by Kritzer and co-workers. The cells stably express a HaloTag-GFP fusion protein anchored through a mitochondria targeting peptide exposed to the cytosol. For CAPA, Hela cells were seeded using DMEM supplemented with FBS in a 96-well plate one day before the experiment at a density of 4×10^4 cells/well. Just before the assay, the growth media was aspirated off and replaced with Opti-MEM assay media (100 μL/well). DMSO stocks of peptides (10 mM) were diluted in Opti-MEM to prepare serial dilutions of peptides in a separate 96-well PCR plate ensuring the final concentration of DMSO was kept consistent and below 1%. Subsequently, 25 μL of peptide solution was added into each well and the plate was incubated for 4 h at 37° C. with 5% CO2. After aspirating the assay media off, cells were washed with fresh Opti-MEM (80 μL/well) for 15 min at rt. Following removal of the washing media, cells were incubated with 5 μM CA-TAMRA in Opti-MEM (50 μL/well) for 15 min. Non CATAMRA control wells were incubated with Opti-MEM alone (50 μL/well). […] After aspiration, cells were trypsinized using clear Trypsin (20 μL/well, 10 min at 37° C.), resuspended in PBS containing 2% FBS ([…]), and analyzed using a benchtop flow cytometer (Guava EasyCyte, EMD Millipore).

[7] = CPP tagged peptides overview, SD1/2 binding affinity, mean ± SEM, n ≥ 3, read-out: Ki

T1 sequence (Q9UBS5 15-961 limits assumed): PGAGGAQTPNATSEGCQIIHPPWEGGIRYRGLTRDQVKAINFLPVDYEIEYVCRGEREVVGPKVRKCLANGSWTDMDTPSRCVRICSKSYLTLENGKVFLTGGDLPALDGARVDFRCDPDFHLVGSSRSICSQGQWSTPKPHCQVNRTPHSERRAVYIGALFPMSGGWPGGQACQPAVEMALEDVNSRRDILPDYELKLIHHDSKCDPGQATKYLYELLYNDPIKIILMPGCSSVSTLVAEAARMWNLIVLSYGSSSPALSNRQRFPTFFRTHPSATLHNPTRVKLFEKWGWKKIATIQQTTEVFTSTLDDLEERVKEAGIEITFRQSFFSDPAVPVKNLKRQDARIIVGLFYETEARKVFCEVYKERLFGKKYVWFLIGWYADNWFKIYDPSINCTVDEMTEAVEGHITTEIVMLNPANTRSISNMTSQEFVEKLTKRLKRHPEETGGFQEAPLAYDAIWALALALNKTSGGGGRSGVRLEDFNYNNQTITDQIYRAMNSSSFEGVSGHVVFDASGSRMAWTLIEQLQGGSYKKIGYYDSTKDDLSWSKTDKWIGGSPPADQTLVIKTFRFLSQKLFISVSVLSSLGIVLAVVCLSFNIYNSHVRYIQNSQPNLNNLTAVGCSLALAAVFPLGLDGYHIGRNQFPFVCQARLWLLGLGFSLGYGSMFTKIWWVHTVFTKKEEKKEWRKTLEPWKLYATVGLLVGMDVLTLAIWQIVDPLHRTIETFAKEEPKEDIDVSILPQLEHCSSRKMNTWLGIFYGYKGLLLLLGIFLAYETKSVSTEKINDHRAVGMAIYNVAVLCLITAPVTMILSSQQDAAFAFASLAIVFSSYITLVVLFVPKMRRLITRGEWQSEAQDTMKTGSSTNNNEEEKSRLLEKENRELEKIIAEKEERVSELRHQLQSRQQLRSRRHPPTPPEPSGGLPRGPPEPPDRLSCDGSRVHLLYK
T1 sequence (O75899 42-941 partner): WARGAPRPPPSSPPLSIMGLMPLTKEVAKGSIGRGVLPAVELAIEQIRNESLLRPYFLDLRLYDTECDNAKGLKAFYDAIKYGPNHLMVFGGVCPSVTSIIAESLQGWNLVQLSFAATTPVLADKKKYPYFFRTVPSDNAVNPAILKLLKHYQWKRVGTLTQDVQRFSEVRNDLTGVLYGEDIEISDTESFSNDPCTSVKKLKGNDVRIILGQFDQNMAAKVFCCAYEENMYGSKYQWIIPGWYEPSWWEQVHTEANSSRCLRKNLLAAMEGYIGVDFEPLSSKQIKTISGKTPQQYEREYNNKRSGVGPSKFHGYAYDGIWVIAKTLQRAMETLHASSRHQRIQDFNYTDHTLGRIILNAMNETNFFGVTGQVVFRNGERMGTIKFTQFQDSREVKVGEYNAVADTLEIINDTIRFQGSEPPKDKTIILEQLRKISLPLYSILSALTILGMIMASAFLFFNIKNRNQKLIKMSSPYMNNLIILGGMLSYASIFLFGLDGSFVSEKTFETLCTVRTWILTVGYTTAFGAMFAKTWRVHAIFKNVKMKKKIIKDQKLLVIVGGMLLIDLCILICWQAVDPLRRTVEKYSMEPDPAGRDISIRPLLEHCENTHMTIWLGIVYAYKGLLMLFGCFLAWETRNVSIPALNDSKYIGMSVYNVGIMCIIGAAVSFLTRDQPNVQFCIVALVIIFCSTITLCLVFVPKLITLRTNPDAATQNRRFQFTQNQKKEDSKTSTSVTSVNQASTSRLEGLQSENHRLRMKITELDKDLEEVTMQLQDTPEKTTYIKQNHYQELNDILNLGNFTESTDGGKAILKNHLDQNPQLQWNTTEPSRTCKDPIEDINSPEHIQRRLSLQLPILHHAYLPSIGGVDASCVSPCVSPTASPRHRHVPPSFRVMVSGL
T2 sequence (Q9UBS5 15-961 limits assumed): as the sequence (Q9UBS5 15-961 limits assumed) above
T2 sequence (O75899 42-941 partner): as the sequence (O75899 42-941 partner) above
T3 sequence (Q9WV18 20-960): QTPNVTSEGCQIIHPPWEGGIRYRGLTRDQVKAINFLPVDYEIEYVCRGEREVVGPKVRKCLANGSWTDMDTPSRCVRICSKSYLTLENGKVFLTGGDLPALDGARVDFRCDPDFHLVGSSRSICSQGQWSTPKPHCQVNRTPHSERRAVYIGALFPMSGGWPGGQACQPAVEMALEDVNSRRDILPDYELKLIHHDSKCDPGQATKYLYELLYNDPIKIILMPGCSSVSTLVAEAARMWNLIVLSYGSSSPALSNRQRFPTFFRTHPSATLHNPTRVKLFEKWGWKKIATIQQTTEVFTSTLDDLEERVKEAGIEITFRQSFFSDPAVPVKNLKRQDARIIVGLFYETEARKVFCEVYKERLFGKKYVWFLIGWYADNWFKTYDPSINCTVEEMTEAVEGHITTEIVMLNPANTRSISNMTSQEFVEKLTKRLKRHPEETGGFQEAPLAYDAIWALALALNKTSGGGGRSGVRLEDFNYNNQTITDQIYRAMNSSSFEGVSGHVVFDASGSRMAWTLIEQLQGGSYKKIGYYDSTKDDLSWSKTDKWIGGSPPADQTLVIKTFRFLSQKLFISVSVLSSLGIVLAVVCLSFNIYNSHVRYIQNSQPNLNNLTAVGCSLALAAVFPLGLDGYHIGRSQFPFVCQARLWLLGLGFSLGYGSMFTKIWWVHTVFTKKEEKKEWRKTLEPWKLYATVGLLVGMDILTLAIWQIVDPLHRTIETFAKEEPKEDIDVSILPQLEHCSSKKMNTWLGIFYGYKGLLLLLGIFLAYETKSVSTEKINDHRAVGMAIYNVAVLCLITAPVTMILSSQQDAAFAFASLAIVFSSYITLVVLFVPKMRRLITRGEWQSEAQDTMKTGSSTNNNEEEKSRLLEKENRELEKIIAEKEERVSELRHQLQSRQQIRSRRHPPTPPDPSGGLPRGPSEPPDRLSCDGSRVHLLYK

## CC[C@H](C)[C@H](NC(=O)[C@H](Cc1ccccc1)NC(=O)[C@H](CCC(=O)O)NC(=O)[C@@H](NC(=O)[C@H](CCC(=O)O)NC(C)=O)[C@@H](C)O)C(=O)N[C@@H](C)C(=O)N[C@@H](Cc1c[nH]c2ccccc12)C(=O)NCC(=O)N1CCC[C@H]1C(=O)N[C@H](C(=O)NCC(=O)N[C@@H](CC(=O)O)C(=O)N[C@@H](CCC(=O)O)C(=O)N[C@@H](CC(=O)O)C(N)=O)[C@@H](C)O [AJAP-1WT, Ac-ETEFIAWGPTGDED-NH2] (Ac-ETEFIAWGPTGDED-NH2)
[1]; purified peptides, read-out: Ki
  Ki: 31 ± 1 nM
[2]
  basal activity of GB1a/2Rs: elevated basal activity
[3]
  Emax values of GABA-activated GB1a/2Rs: did not affect the Emax values
[4]
  half-life: > 48 h
[5]
  pull-down of native GB1a: ability to bind and enrich full-length GB1a subunit

## CC[C@H](C)[C@H](NC(=O)[C@H](Cc1c[nH]c2ccccc12)NC(=O)[C@H](CC(=O)O)NC(=O)[C@H](CC(=O)O)NC(=O)[C@H](CC(=O)O)NC(=O)[C@H](CCC(=O)O)NC(C)=O)C(=O)N[C@@H](CC(=O)O)C(=O)N[C@@H](Cc1c[nH]c2ccccc12)C(=O)N[C@@H](Cc1ccc(O)cc1)C(=O)N[C@@H](CC(=O)O)C(=O)N[C@@H](CO)C(=O)N[C@@H](CC(=O)O)C(=O)N[C@@H](CC(=O)O)C(=O)N[C@@H](CC(=O)O)C(N)=O [Peptide 16] (Ac-EDDDWIDWYDSDDD-NH2)
[1]; [7]
  Ki: 3.2 ± 0.2 nM
[1]; Table 1, affinity maturation, mean ± SEM, n ≥ 3, read-out: Ki
  Ki: 3.2 ± 0.2 nM
[1]; Table 13, peptides for affinity maturation, read-out: Ki (nM) mean ± SEM
  Ki: 3.2 ± 0.2 nM
[2]
  reduction of negative allosteric modulation effects of AJAP-1 at GB1a/2Rs in trans: to a greater extent than AJAP-1WT peptide
  basal activity of GB1a/2Rs: elevated basal activity
[3]
  Emax values of GABA-activated GB1a/2Rs: did not affect the Emax values
[4]
  half-life: > 48 h

## CC[C@H](C)[C@H](NC(=O)[C@H](CC(=O)O)NC(=O)[C@H](CC(=O)O)NC(=O)[C@H](Cc1ccc(O)cc1)NC(=O)[C@H](CC(=O)O)NC(=O)[C@H](CC(=O)O)NC(=O)[C@H](CO)NC(=O)[C@H](CC(=O)O)NC(=O)[C@H](CCC(=O)O)NC(=O)[C@H](Cc1ccc2ccccc2c1)NC(C)=O)C(=O)N[C@@H](CC(=O)O)C(=O)N[C@@H](CC(=O)O)C(=O)N[C@@H](CC(=O)O)C(=O)N[C@@H](Cc1c[nH]c2ccccc12)C(N)=O [Scr-20, reference compound] (Ac-[2Nal]EDSDDYDDIDDDW-NH2)
[1]; Table 16, ncAAs incorporated peptides, read-out: Ki (nM) mean ± SEM
  Ki: 31200 ± 989 nM
[2]
  basal activity of GB1a/2Rs: significant decreased basal activity
[3]
  Emax values of GABA-activated GB1a/2Rs: did not affect the Emax values
[5]
  pull-down of native GB1a: did not interact with the GB1a subunit

## DDDWIDWYDSDDDYGRKKRRQRRR [Peptide 16-Tat]
[6]
  CP50: 19 ± 0.4 µM
[1]; [7]
  Ki: 71 ± 1 nM
[1]; Table 14, CPPs tagged peptides, read-out: Ki (nM) mean ± SEM
  Ki: 70.5 ± 0.3 nM
